Results reported in article PMC6690547, “The triphenylmethane dye brilliant blue G is only moderately effective at inhibiting amyloid formation by human amylin or at disaggregating amylin amyloid fibrils, but interferes with amyloid assays; Implications for inhibitor design” (PLoS ONE, 2019).

Biological target: T1, human amylin (h-amylin) (Homo sapiens, UniProt P10997)
T1 construct: gene IAPP; synthetic 37 residue polypeptide with a disulfide bridge connecting Cys-2 and Cys-7 and an amidated C-terminus; measured as amyloid fibrils
T1 sequence (P10997 34-70): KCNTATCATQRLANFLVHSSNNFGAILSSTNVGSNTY
Test: co-sedimentation of BBG with h-amylin amyloid fibrils (supernatant absorbance at […] nm); supported by TEM/AFM of inhibited and remodeled fibrils and loss of thioflavin-T signal
Format: binding
Excerpt: The result is consistent with binding of BBG to h-amylin amyloid fibers

CCOc1ccc(Nc2ccc(/C(=C3C=C/C(=[N+](/CC)Cc4cccc(S(=O)(=O)[O-])c4)C=C/3C)c3ccc(N(CC)Cc4cccc(S(=O)(=O)O)c4)cc3C)cc2)cc1 [BBG, Sodium;3-[[4-[(E)-[4-(4-ethoxyanilino)phenyl]-[4-[ethyl-[(3-sulfonatophenyl)methyl]azaniumylidene]-2-methylcyclohexa-2,5-dien-1-ylidene]methyl]-N-ethyl-3-methylanilino]methyl]benzenesulfonate]
co-sedimentation of BBG with h-amylin amyloid fibrils (supernatant absorbance at): significant BBG pellets with the fiber. The result is consistent with binding of BBG to h-amylin amyloid fibers
